Data published in patent publication US20240246956A1, “CLASS IIA HISTONE DEACETYLASE (HDAC) DEGRADER LIGANDS AND METHODS OF USE THEREOF” (DANA-FARBER CANCER INSTITUTE, INC., priority 2021, published 2024).

Assays:
HDAC7 = biological target: T1, HDAC7 (Homo sapiens, UniProt Q8WUI4); test: Global quantitative proteomics, change in protein abundance in Kelly cells; assay type: cell-based; parameters: endogenous in cells; host or cells: Kelly cells; details: 5-hour treatment, vs DMSO, FIG. 3
T1 sequence (Q8WUI4 1-952): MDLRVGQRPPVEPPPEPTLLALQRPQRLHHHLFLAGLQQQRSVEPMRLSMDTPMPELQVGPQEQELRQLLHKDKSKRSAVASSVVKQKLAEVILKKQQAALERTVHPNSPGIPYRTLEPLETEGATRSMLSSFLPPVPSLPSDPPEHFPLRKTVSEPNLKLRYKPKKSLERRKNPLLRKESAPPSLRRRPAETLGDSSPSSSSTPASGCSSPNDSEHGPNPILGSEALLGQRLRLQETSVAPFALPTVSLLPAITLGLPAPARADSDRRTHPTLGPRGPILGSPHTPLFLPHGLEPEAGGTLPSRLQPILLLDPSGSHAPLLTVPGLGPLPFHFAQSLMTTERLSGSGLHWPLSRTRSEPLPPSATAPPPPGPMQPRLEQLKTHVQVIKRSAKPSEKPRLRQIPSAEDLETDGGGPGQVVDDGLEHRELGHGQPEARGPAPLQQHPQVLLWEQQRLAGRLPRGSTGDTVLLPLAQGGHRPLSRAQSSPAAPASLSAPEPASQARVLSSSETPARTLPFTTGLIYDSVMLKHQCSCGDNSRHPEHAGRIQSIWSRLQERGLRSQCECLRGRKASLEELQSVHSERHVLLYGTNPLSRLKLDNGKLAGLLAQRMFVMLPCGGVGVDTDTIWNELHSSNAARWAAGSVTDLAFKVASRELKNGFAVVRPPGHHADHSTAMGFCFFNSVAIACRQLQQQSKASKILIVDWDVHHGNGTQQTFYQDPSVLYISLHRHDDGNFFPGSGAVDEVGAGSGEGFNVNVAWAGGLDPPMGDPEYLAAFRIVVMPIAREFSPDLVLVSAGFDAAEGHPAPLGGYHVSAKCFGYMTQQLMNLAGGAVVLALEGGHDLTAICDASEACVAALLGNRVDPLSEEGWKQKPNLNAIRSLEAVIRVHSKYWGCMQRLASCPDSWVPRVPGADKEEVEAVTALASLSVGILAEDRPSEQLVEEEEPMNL
Experimental: (§1) Cells were washed once with phosphate-buffered saline (PBS), harvested with CellstripperTM (Corning®), washed two additional times with PBS and snap frozen in liquid nitrogen. […] Proteins were precipitated using methanol/chloroform in Donovan et al., Elife 7:e38430 (2018). The precipitated protein was resuspended in 4 M Urea, 50 mM HEPES pH 7.4, followed by dilution to 1 M urea with the addition of 200 mM EPPS, pH 8. Proteins were first digested with LysC (1:50: enzyme:protein) for 12 hours at room temperature. The LysC digestion was diluted to 0.5 M Urea with 200 mM EPPS pH 8 followed by digestion with trypsin (1:50: enzyme:protein) for 6 hours at 37° C. Tandem mass tag (TMT) reagents (Thermo Fisher Scientific) were dissolved in anhydrous acetonitrile (ACN) according to manufacturer's instructions. Anhydrous ACN was added to each peptide sample to a final concentration of 30% v/v, and labeling was induced with the addition of TMT reagent to each sample at a ratio of 1:4 peptide:TMT label. The 11-plex labeling reactions were performed for 1.5 hours at room temperature and the reaction quenched by the addition of hydroxylamine to a final concentration of 0.3% for 15 minutes at room temperature. The sample channels were combined at a 1:1 ratio, desalted using C18 solid phase extraction cartridges (Waters®) and analyzed by LC-MS for channel ratio comparison. Samples were then combined using the adjusted volumes determined in the channel ratio analysis and dried down in a speed vacuum. The combined sample was then resuspended in 1% formic acid, and acidified (pH 2-3) before being subjected to desalting with C18 SPE (Sep-Pak®-, Waters®). […] The 96 resulting fractions were then pooled in a non-contiguous manner into 24 fractions and these fractions were used for subsequent mass spectrometry analysis. Data were collected using an Orbitrap FusionTM LumosTM mass spectrometer (Thermo Fisher Scientific, San Jose, CA, USA) coupled with a […] pump (Thermo Fisher Scientific). Peptides were separated on an EasySprayTM ES803.rev2 75 μm inner diameter microcapillary column (ThermoFisher Scientific). Peptides were separated using a 190 min gradient of 6-27% acetonitrile in 1.0% formic acid with a flow rate of 300 nL/min. Each analysis used an MS3-based TMT method as described in McAlister et al., Anal. Chem. 86(14):7150-7158 (2014). The data were acquired using a mass range of m/z 340-1350, resolution 120,000, automatic gain control (AGC) target 1×10^6, maximum injection time 100 ms, dynamic exclusion of 120 seconds for the peptide measurements in the Orbitrap FusionTM LumosTM mass spectrometer. Data dependent MS2 spectra were acquired in the ion trap with a normalized collision energy (NCE) set at 55%, AGC target set to 1.5×10^5 and a maximum injection time of 150 ms. MS3 scans were acquired in the Orbitrap FusionTM LumosTM mass spectrometer with a higher energy collision dissociation (HCD) set to 55%, AGC target set to 1.5×10^5, maximum injection time of 150 ms, resolution at 50,000 and with a maximum synchronous precursor selection (SPS) precursors set to 10. Proteome Discoverer 2.2 (Thermo Fisher Scientific) was used for .RAW file processing and controlling peptide and protein level false discovery rates, assembling proteins from peptides, and protein quantification from peptides. MS/MS spectra were searched against a Swissprot human database (December 2016) with both the forward and reverse sequences. […] TMT reporter ion intensities were measured using a 0.003 Da window around the theoretical m/z for each reporter ion in the MS3 scan. […] Reporter ion intensities were normalized and scaled using in-house scripts in the R framework. Statistical analysis was carried out using the limma package within the R framework as described in Ritchie et al., Nucleic Acids Res. 43(7):e47 (2015).

HDAC5 = HDAC5 (Homo sapiens, UniProt Q9UQL6); test: as above; assay type: cell-based; parameters: endogenous in cells; host or cells: Kelly cells; details: 5 μM, 5-hour treatment, vs DMSO, FIG. 3
Experimental: as §1

class IIa HDACs [1] = test: as above; assay type: cell-based, human; details: 5 hours, vs DMSO, moderated t-test
Experimental: (§2) Cells were washed once with phosphate-buffered saline (PBS), harvested with CellstripperTM (Corning®), washed two additional times with PBS and snap frozen in liquid nitrogen. […] Proteins were precipitated using methanol/chloroform in Donovan et al., Elife 7:e38430 (2018). The precipitated protein was resuspended in 4 M Urea, 50 mM HEPES pH 7.4, followed by dilution to 1 M urea with the addition of 200 mM EPPS, pH 8. Proteins were first digested with LysC (1:50: enzyme:protein) for 12 hours at room temperature. The LysC digestion was diluted to 0.5 M Urea with 200 mM EPPS pH 8 followed by digestion with trypsin (1:50: enzyme:protein) for 6 hours at 37° C. Tandem mass tag (TMT) reagents (Thermo Fisher Scientific) were dissolved in anhydrous acetonitrile (ACN) according to manufacturer's instructions. Anhydrous ACN was added to each peptide sample to a final concentration of 30% v/v, and labeling was induced with the addition of TMT reagent to each sample at a ratio of 1:4 peptide:TMT label. The 11-plex labeling reactions were performed for 1.5 hours at room temperature and the reaction quenched by the addition of hydroxylamine to a final concentration of 0.3% for 15 minutes at room temperature. The sample channels were combined at a 1:1 ratio, desalted using C18 solid phase extraction cartridges (Waters®) and analyzed by LC-MS for channel ratio comparison. Samples were then combined using the adjusted volumes determined in the channel ratio analysis and dried down in a speed vacuum. The combined sample was then resuspended in 1% formic acid, and acidified (pH 2-3) before being subjected to desalting with C18 SPE (Sep-Pak®-, Waters®). […] Proteome Discoverer 2.2 (Thermo Fisher Scientific) was used for .RAW file processing and controlling peptide and protein level false discovery rates, assembling proteins from peptides, and protein quantification from peptides. […] TMT reporter ion intensities were measured using a 0.003 Da window around the theoretical m/z for each reporter ion in the MS3 scan. […]

class IIa HDACs [2] = test: Global quantitative proteomics, change in protein abundance in MM.1S cells; assay type: cell-based, human; details: 1 μM, 5-hour treatment, vs DMSO, moderated t-test, FIG. 5
Experimental: as §2, with “Tandem mass tag (TMT) reagents (Thermo Fisher Scientific) were dissolved in anhydrous acetonitrile (ACN) according to manufacturer's instructions. Anhydrous ACN was added to each peptide sample to a final concentration of 30% v/v, and labeling was induced with the addition of TMT reagent to each sample at a ratio of 1:4 peptide:TMT label. The 11-plex labeling reactions were performed for 1.5 hours at room temperature and the reaction quenched by the addition of hydroxylamine to a final concentration of 0.3% for 15 minutes at room temperature.” left out, “vacuum.” for “vacuum. The combined sample was then resuspended in 1% formic acid, and acidified (pH 2-3) before being subjected to desalting with C18 SPE (Sep-Pak®-, Waters®).”

Sequence of HDAC5 (Q9UQL6 whole entry): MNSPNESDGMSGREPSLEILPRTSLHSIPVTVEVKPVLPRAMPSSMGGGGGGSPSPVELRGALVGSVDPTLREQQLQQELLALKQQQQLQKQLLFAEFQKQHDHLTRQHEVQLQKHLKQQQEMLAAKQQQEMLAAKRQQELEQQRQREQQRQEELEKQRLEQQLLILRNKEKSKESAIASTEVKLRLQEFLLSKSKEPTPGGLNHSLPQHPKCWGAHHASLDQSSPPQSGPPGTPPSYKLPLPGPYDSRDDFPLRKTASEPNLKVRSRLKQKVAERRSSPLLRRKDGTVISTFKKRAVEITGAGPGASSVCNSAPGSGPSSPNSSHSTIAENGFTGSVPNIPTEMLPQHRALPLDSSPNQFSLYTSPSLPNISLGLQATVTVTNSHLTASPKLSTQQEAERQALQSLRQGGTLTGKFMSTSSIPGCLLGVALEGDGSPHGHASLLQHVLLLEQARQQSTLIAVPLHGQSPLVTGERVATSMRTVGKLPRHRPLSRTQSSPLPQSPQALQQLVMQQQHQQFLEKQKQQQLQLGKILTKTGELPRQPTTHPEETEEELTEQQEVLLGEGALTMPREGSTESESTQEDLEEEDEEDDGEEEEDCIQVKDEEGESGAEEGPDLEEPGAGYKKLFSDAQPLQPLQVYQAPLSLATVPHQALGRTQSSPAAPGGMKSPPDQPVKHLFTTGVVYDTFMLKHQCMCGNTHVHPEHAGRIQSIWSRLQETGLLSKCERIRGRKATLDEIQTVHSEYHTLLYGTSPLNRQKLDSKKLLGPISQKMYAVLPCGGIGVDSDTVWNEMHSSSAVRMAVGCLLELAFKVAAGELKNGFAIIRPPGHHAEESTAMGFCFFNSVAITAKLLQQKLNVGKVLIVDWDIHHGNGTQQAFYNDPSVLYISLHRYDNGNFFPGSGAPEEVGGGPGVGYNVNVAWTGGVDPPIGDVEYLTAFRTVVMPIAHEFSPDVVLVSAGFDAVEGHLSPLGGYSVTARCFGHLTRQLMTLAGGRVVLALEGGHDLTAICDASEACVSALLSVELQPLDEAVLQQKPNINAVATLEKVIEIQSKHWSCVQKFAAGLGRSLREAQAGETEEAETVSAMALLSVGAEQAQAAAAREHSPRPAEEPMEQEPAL

O=C1CCC(N2C(=O)c3cccc(NCCN4CCC(CNC(=O)c5cccc(-c6noc(C(F)(F)F)n6)c5)(c5nc(-c6ccccc6)cs5)CC4)c3C2=O)C(=O)N1 (stereo not drawn) [Compound 3, N-((1-(2-((2-(2,6-dioxopiperidin-3-yl)-1,3-dioxoisoindolin-4-yl)amino)ethyl)-4-(4-phenylthiazol-2-yl)piperidin-4-yl)methyl)-3-(5-(trifluoromethyl)-1,2,4-oxadiazol-3-yl)benzamide]
protein expression level of HDAC7 (HDAC7; 5 μM): reduction in protein expression level | protein expression level of HDAC5 (HDAC5): reduction in protein expression level | class IIa HDAC levels (relative protein abundance) (class IIa HDACs [1]; 5 μM, FIG. 4A): significant reduction

CCN(CCOCCOCCC(=O)N[C@H](C(=O)N1C[C@H](O)C[C@H]1C(=O)N[C@@H](C)c1ccc(-c2scnc2C)cc1)C(C)(C)C)C[C@@H](C)NC(=O)c1ccc(-c2noc(C(F)(F)F)n2)cc1 [Compound 17]
class IIa HDAC levels (relative protein abundance) (class IIa HDACs [2]): significant reduction | protein expression level of HDAC7 (HDAC7; 1 μM): selective reduction in protein expression level | class IIa HDAC levels (relative protein abundance) (class IIa HDACs [1]; 1 μM, FIG. 4B-4C): significant reduction
